Assay [1] deals with MV-4-11 human acute myeloid leukemia. The experiment in a line: MV-4-11 CCK-8 proliferation assay. The assay is classed as cell-based. The settings on record: Homo sapiens, MV4-11; MV-4-11 cells, 72 hr. The essentials: (§1)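 Lines were maintained according to ATCC guidance. Compounds were then applied as a 3-fold titration from 20 μM to 1.02 nM, and proliferation was measured by CCK-8 absorbance, normalised to DMSO controls minus a no-cell blank.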
In general terms: Tetrazolium dyes change colour on reduction, which living cells bring about.

In assay [2] the target is T1, HSP90α protein (Homo sapiens, UniProt P07900).
T1 construct: purchased BPS Bioscience #50298
The experiment in a line: HSP90α-binding FP (FITC) assay. The settings on record: FP competition with FITC-geldanamycin. The protocol: Binding of test compounds to HSP90α protein was measured by fluorescent polarization (FP) using the HSP90α (N-terminal) Assay Kit (BPS Bioscience, #50298), following the manufacturer's instructions, except as noted. Fluorescently labeled HSP90-binding compounds, either the provided FITC-geldanamycin (5 nM final concentration) or RNK04010, a triazolone-based HSP90 binding small molecule labeled with BODIPY through a piperazine-phenyl linker (5 nM final concentration) were employed. A 2.5-fold serial dilution of each test compound ranging from 20 μM to 5.2 nM was assayed for binding to HSP90α. After the final step of adding HSP90α protein to each assay well, plates were mixed by brief shaking, incubated at 25° C. for 120 min for FITC-geldanamycin or 300 min for RNK04010, and fluorescence was measured using a PerkinElmer EnVision Plate Reader.

The test system of assay [3] is U-87 MG human glioblastoma. The experiment in a line: U87 MG CCK-8 proliferation assay. The settings on record: Homo sapiens, U-87 MG, 72 h, U-87 MG cells, read-out: U87MG CCK-8. The format is cell-based. The essentials:
as §1

Another assay deals with MAPK7 (Homo sapiens, UniProt Q13164). The experiment in a line: MAPK7 Western blot protein degradation assay in U-87 MG cells. Also noted: U-87 MG human glioblastoma cells, which express MAPK7; endogenous in cells; host or cells: U-87 MG. The format is cell-based. The settings on record: 48 hr. As for the experimental part: U-87 MG human glioblastoma cells were seeded in 6- or 12-well tissue culture plates, and after 1 hr, test compounds were added at various concentrations and incubated at 37° C./5% CO2 for 48 hr. Cells were then washed with cold PBS, aspirated and cold RIPA buffer containing a protease/phosphatase inhibitor cocktail was added to lyse cells. After centrifugation, the total protein concentrations of cell lysates were determined using the BCA protein assay. Samples were normalized for equivalent protein concentrations, 5×SDS-PAGE loading buffer added and denatured at 100° C. for 10 min. 20 μl of each sample/well was loaded on a SDS-PAGE gel and electrophoresed for 20 min at 80 V, then 120 V for 1.5 hr. Gels were then electroblotted to nitrocellulose membranes using a wet-transfer method at 250 mA for 2.5 hr. Membranes were incubated with blocking buffer for 1 hr and washed 3 times with TBST for 5 min. Membranes were then incubated with anti-MAPK7 (anti-ERK5; Cell Signaling Technology, #12950) and anti-3-Actin (Cell Signaling Technology, #3700) monoclonal antibodies diluted in blocking buffer at 4° C. overnight per the manufacturer's recommendations. After washing 3 times, blots were incubated with appropriately labeled secondary antibodies for 1 hr at room temperature and washed again. Fluorescence imaging and quantitation was performed using a LI-COR Odyssey. Results was analyzed using GraphPad Prism 7 software.
A general note: Immunoblotting shows a protein as a band on a membrane.

A further assay concerns ERBB2. The experiment in a line: ERBB2 (HER2) flow cytometry protein degradation assay in BT-474 cells. The format is cell-based, human. The settings on record: DC50, BT-474 cells, 24 hr. The essentials: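 BT-474 cells trypsinised after compound treatment and stained with PE-conjugated anti-ERBB2 antibody, 30 min at 25° C in the dark, then fixed in 1% paraformaldehyde for flow cytometry. % inhibition = 100−(D−B)/(S−B)*100, using treated, untreated-stained and unstained cell fluorescence.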
(In general: A flow cytometer gives signals particle by particle.)

The target of assay [4] is T1, HSP90α protein. The experiment in a line: HSP90α-binding FP (BODIPY) assay. The settings on record: FP competition with BODIPY-labeled RNK04010. The method in brief: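 Fluorescence polarization measured competition with N-terminal human HSP90α, using either FITC-geldanamycin or BODIPY-labelled triazolone RNK04010 as tracer (5 nM final each). Compounds were tested in 2.5-fold dilutions from 20 μM to 5.2 nM, with incubation at 25 °C for 120 min (FITC) or 300 min (BODIPY).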

What is called IC50 is the concentration needed to halve the response being measured.

Chain of MAPK7 (Q13164 whole entry): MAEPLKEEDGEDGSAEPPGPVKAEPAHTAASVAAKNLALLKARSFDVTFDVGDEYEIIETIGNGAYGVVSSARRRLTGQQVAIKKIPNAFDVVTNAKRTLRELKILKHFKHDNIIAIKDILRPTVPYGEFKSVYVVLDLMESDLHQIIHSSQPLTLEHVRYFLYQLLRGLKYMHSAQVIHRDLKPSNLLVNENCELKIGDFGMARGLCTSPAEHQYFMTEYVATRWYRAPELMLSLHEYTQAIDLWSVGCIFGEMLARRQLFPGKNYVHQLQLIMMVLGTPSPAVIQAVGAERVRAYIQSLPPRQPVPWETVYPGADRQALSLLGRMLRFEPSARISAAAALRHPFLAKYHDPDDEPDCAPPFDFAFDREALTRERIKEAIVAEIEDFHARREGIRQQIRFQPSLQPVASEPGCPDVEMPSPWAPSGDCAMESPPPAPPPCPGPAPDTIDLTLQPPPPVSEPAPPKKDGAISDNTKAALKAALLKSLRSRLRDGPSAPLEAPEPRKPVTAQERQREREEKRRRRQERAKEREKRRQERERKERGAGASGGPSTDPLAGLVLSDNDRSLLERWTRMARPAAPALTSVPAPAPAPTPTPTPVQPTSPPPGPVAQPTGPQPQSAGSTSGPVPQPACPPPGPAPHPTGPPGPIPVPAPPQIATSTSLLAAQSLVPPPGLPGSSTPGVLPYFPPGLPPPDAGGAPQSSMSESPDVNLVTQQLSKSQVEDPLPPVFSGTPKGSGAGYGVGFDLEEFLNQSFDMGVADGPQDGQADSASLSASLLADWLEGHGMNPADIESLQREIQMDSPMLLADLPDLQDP

Take `CCOc1cc(N2CCC(C(=O)NCCOCCOCCOCCOc3ccc(Nc4cc(-n5nc(C(F)(F)F)c6c5CC(C)(C)CC6=O)ccc4C(N)=O)cc3)CC2)ccc1Nc1ncc2c(n1)N(C)c1ccccc1C(=O)N2C` [Compound 132, N-(2-(2-(2-(2-(4-((2-carbamoyl-5-(6,6-dimethyl-4-oxo-3-(trifluoromethyl)-4,5,6,7-tetrahydro-1H-indazol-1-yl)phenyl)amino)phenoxy)ethoxy)ethoxy)ethoxy)ethyl)-1-(4-((5,11-dimethyl-6-oxo-6,11-dihydro-5H-benzo[e]pyrimido[5,4-b][1,4]diazepin-2-yl)amino)-3-ethoxyphenyl)piperidine-4-carboxamide]: the EC50 in assay [1] was 0.1 to 1 µM; in assay [3] it was more than 1 µM. Moreover, at HSP90α protein [2], the IC50 was more than 1 µM.
In the case of `CCOc1cc(N2CCC(C(=O)N3CCC(CN4CCN(CCOc5ccc(Nc6cc(-n7nc(C(F)(F)F)c8c7CC(C)(C)CC8=O)ccc6C(N)=O)cc5)CC4)CC3)CC2)ccc1Nc1ncc2c(n1)N(C)c1ccccc1C(=O)N2C` [Compound 130, 4-(6,6-dimethyl-4-oxo-3-(trifluoromethyl)-4,5,6,7-tetrahydro-1H-indazol-1-yl)-2-((4-(2-(4-((1-(1-(4-((5,11-dimethyl-6-oxo-6,11-dihydro-5H-benzo[e]pyrimido[5,4-b][1,4]diazepin-2-yl)amino)-3-ethoxyphenyl)piperidine-4-carbonyl)piperidin-4-yl)methyl)piperazin-1-yl)ethoxy)phenyl)amino)benzamide], the results for the EC50 in assay [1] and in assay [3] were 0.1 to 1 µM and more than 1 µM, respectively. Moreover, the 50% inhibitory concentration (IC50) at HSP90α protein [2] is more than 1 µM.
With `CCOc1cc(N2CCC(C(=O)NCCOCCOc3ccc(-n4c(O)nnc4-c4cc(C(C)C)c(O)cc4O)cc3)CC2)ccc1Nc1ncc2c(n1)N(C)c1ccccc1C(=O)N2C` [Compound 015, N-(2-(2-(4-(3-(2,4-dihydroxy-5-isopropylphenyl)-5-hydroxy-4H-1,2,4-triazol-4-yl)phenoxy)ethoxy)ethyl)-1-(4-((5,11-dimethyl-6-oxo-6,11-dihydro-5H-benzo[e]pyrimido[5,4-b][1,4]diazepin-2-yl)amino)-3-ethoxyphenyl)piperidine-4-carboxamide], the values for the EC50 in assay [1] and in assay [3] were less than 0.1 µM and 0.1 to 1 µM, respectively. Further, at HSP90α protein [2], the IC50 was in the range of 0.1 to 1 µM.
Take `CCOc1cc(N2CCC(C(=O)NCCc3ccc(-n4c(O)nnc4-c4cc(C(C)C)c(O)cc4O)cc3)CC2)ccc1Nc1ncc2c(n1)N(C)c1ccccc1C(=O)N2C` [Compound 008, N-(4-(3-(2,4-dihydroxy-5-isopropylphenyl)-5-hydroxy-4H-1,2,4-triazol-4-yl)phenethyl)-1-(4-((5,11-dimethyl-6-oxo-6,11-dihydro-5H-benzo[e]pyrimido[5,4-b][1,4]diazepin-2-yl)amino)-3-ethoxyphenyl)piperidine-4-carboxamide]: the EC50 in assay [1] is less than 0.1 µM; in assay [3], 0.1 to 1 µM. Besides, the IC50 at HSP90α protein [2] fell in the range of 0.1 to 1 µM.
For `CCOc1cc(N2CCC(C(=O)NCC3CCN(C(=O)C4CCN(Cc5ccc(-n6c(O)nnc6-c6cc(CC)c(O)cc6O)cc5)CC4)CC3)CC2)ccc1Nc1ncc2c(n1)N(C)c1ccccc1C(=O)N2C` [Compound 011, 1-(4-((5,11-dimethyl-6-oxo-6,11-dihydro-5H-benzo[e]pyrimido[5,4-b][1,4]diazepin-2-yl)amino)-3-ethoxyphenyl)-N-((1-(1-(4-(3-(5-ethyl-2,4-dihydroxyphenyl)-5-hydroxy-4H-1,2,4-triazol-4-yl)benzyl)piperidine-4-carbonyl)piperidin-4-yl)methyl)piperidine-4-carboxamide], the EC50 was 0.1 to 1 µM in assay [1] and more than 1 µM in assay [3]. On HSP90α protein [2], this molecule came in with an IC50 of 0.1 to 1 µM.
Regarding `CCOc1cc(N2CCC(C(=O)N3CCC(CN4CCN(C(=O)c5ccc(-n6c(O)nnc6-c6cc(C(C)C)c(O)cc6O)cc5)CC4)CC3)CC2)ccc1Nc1ncc2c(n1)N(C)c1ccccc1C(=O)N2C` [Compound 126, 2-((4-(4-(4-((4-(4-(3-(2,4-dihydroxy-5-isopropylphenyl)-5-hydroxy-4H-1,2,4-triazol-4-yl)benzoyl)piperazin-1-yl)methyl)piperidine-1-carbonyl)piperidin-1-yl)-2-ethoxyphenyl)amino)-5,11-dimethyl-5,11-dihydro-6H-benzo[e]pyrimido[5,4-b][1,4]diazepin-6-one], the results for the EC50 in assay [1] and in assay [3] were less than 0.1 µM and 0.1 to 1 µM, respectively. The same molecule returned an IC50 on HSP90α protein [2] of 0.1 to 1 µM.
For the molecule `CCOc1cc(N2CCC(C(=O)N3CCC(CN4CCC(COc5ccc(Nc6cc(-n7nc(C(F)(F)F)c8c7CC(C)(C)CC8=O)ccc6C(N)=O)cc5)CC4)CC3)CC2)ccc1Nc1ncc2c(n1)N(C)c1ccccc1C(=O)N2C` [Compound 129, 4-(6,6-dimethyl-4-oxo-3-(trifluoromethyl)-4,5,6,7-tetrahydro-1H-indazol-1-yl)-2-((4-((1-((1-(1-(4-((5,11-dimethyl-6-oxo-6,11-dihydro-5H-benzo[e]pyrimido[5,4-b][1,4]diazepin-2-yl)amino)-3-ethoxyphenyl)piperidine-4-carbonyl)piperidin-4-yl)methyl)piperidin-4-yl)methoxy)phenyl)amino)benzamide], the EC50 in assay [1] was 0.1 to 1 µM; in assay [3] it was more than 1 µM. Moreover, the IC50 at HSP90α protein [2] was 0.1 to 1 µM.
Consider `CCOc1cc(N2CCC(C(=O)NCC3CCN(C(=O)C4CCN(Cc5ccc(-n6c(O)nnc6-c6cc(CC)c(O)cc6O)cc5)CC4)C3)CC2)ccc1Nc1ncc2c(n1)N(C)c1ccccc1C(=O)N2C` (centres unmarked) [Compound 012, 1-(4-((5,11-dimethyl-6-oxo-6,11-dihydro-5H-benzo[e]pyrimido[5,4-b][1,4]diazepin-2-yl)amino)-3-ethoxyphenyl)-N-((1-(1-(4-(3-(5-ethyl-2,4-dihydroxyphenyl)-5-hydroxy-4H-1,2,4-triazol-4-yl)benzyl)piperidine-4-carbonyl)pyrrolidin-3-yl)methyl)piperidine-4-carboxamide], for which the EC50 is 0.1 to 1 µM in assay [1] and more than 1 µM in assay [3]. At HSP90α protein [2], this molecule had an IC50 of 0.1 to 1 µM.
Regarding `CCOc1cc(N2CCC(C(=O)NCc3ccc(-n4c(O)nnc4-c4cc(C(C)C)c(O)cc4O)cc3F)CC2)ccc1Nc1ncc2c(n1)N(C)c1ccccc1C(=O)N2C` [Compound 036, N-(4-(3-(2,4-dihydroxy-5-isopropylphenyl)-5-hydroxy-4H-1,2,4-triazol-4-yl)-2-fluorobenzyl)-1-(4-((5,11-dimethyl-6-oxo-6,11-dihydro-5H-benzo[e]pyrimido[5,4-b][1,4]diazepin-2-yl)amino)-3-ethoxyphenyl)piperidine-4-carboxamide], the “MAPK7 degradation (30 nM)” value at MAPK7 (30 nM) is “C (< 33% degradation)”. Further, the “MAPK7 degradation (100 nM)” value on MAPK7 (100 nM) is given as “C (< 33% degradation)”. At MAPK7 (300 nM), the “MAPK7 degradation (300 nM)” value is listed as “B (33-66% degradation)”. On MAPK7 (1000 nM), the “MAPK7 degradation (1000 nM)” value is “A (>66% degradation)”. In the assay with ERBB2, the ERBB2 degradation entry was “B (DC50 = 100-1000 nM)”. Also, the EC50 in assay [1] was less than 0.1 µM; in assay [3], more than 1 µM. The same molecule displayed an IC50 on HSP90α protein [4] of 0.1 to 1 µM.
